# Results published in patent US20230365546A1, “5-SUBSTITUTED INDOLE 3-AMIDE DERIVATIVES, PREPARATION METHOD AND USE THEREOF” (ORIGIANT PHARMACEUTICAL CO., LTD, priority 2020, published 2023).
# Experiments:
# Experiment in all cases: Kinase Profiler 10 μM panel
# [1] = biological target: Abl(m) (Mus musculus (Mouse), UniProt P00520)
# Method: (§1) In vitro kinase assays were conducted using Kinase Profiler services provided by Eurofins. The experimental method was as follows: the small molecule compound to be tested (0.001-10 μM), the protein kinase to be tested were incubated with a buffer containing substrate, 10 mM magnesium acetate, and [γ-^33P-ATP], the reaction was started by adding Mg\TPmix, after incubation for a period of time at room temperature, a 3% phosphate solution was added to the buffer to stop the reaction. Subsequently, 10 μL of the reaction mixture was quantitatively pipetted onto P30 filter paper, which was washed three times with 75 mM phosphate solution and then once with methanol. The P30 filter paper was air-dried and scintillation fluid was added for scintillation counting.
# [2] = biological target: PI3 Kinase (p110a/p65a)(m) (Mus musculus (Mouse), UniProt P42337)
# Method: as §1
# [3] = biological target: Fms(h) (Homo sapiens (Human), UniProt P07333)
# Method: as §1
# [4] = biological target: PI3 Kinase (p110a/p85a)(h) (Homo sapiens (Human), UniProt P42336)
# Method: The experimental method was as follows: the small molecule compound to be tested (0.001-10 μM), the protein kinase to be tested were incubated with a buffer containing substrate, 10 mM magnesium acetate, and [γ-^33P-ATP], the reaction was started by adding Mg\TPmix, after incubation for a period of time at room temperature, a 3% phosphate solution was added to the buffer to stop the reaction. Subsequently, 10 μL of the reaction mixture was quantitatively pipetted onto P30 filter paper, which was washed three times with 75 mM phosphate solution and then once with methanol. The P30 filter paper was air-dried and scintillation fluid was added for scintillation counting.
# [5] = biological target: AMPKα1(h) (Homo sapiens (Human), UniProt Q13131)
# Method: as §1
# [6] = biological target: Pim-2(h) (Homo sapiens (Human), UniProt Q9P1W9)
# Sequence of Pim-2(h) (Q9P1W9 whole entry): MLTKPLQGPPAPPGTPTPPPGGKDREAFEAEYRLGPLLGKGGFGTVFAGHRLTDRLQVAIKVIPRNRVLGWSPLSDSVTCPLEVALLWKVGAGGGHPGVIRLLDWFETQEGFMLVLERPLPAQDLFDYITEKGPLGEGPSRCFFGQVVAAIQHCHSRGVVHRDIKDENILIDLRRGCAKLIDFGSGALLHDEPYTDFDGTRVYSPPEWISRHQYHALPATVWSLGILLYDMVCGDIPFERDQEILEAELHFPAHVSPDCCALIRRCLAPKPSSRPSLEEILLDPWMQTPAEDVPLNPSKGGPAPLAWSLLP
# Method: as §1
# [7] = biological target: Haspin(h) (Homo sapiens (Human), UniProt Q8TF76)
# Method: as §1
# [8] = biological target: Aurora-C(h) (Homo sapiens (Human), UniProt Q9UQB9)
# Sequence of Aurora-C(h) (Q9UQB9 whole entry): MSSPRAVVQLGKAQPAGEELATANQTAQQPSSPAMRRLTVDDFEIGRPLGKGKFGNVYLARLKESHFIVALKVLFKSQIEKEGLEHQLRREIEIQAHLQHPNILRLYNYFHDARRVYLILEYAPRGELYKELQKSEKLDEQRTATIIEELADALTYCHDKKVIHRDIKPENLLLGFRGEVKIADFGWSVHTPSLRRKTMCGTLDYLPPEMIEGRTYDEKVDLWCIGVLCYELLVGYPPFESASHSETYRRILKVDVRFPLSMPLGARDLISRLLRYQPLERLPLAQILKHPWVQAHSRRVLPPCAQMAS
# Method: as §1
# [9] = biological target: HPK1(h) (Homo sapiens (Human), UniProt Q92918)
# Method: as §1
# [10] = biological target: PKCγ(h) (Homo sapiens (Human), UniProt P05129)
# Method: as §1
# [11] = biological target: PKCδ(h) (Homo sapiens (Human), UniProt Q05655)
# Sequence of PKCδ(h) (Q05655 whole entry): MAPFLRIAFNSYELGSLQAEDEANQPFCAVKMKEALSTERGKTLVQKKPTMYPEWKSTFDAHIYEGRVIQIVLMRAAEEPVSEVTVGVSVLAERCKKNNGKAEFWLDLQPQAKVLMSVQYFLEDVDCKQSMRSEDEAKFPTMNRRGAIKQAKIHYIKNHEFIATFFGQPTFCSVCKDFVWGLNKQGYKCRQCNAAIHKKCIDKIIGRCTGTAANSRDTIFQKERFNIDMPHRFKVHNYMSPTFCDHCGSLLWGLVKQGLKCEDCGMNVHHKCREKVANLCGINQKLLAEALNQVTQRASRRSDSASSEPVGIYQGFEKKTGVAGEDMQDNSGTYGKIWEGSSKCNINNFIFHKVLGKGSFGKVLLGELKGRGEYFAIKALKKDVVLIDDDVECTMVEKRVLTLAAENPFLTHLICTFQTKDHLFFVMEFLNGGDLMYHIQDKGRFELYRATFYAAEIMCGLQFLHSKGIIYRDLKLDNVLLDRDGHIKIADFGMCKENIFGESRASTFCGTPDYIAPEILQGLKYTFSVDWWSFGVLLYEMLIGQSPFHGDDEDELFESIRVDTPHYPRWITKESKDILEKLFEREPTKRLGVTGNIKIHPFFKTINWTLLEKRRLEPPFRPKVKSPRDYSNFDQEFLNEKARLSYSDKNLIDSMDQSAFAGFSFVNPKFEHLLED
# Method: as §1
# [12] = biological target: B-Raf(h) (Homo sapiens (Human), UniProt P15056)
# Method: as §1
# [13] = biological target: IR(h) (Homo sapiens (Human), UniProt P06213)
# Method: as §1
# [14] = biological target: BrSK2(h) (Homo sapiens (Human), UniProt Q8IWQ3)
# Sequence of BrSK2(h) (Q8IWQ3 whole entry): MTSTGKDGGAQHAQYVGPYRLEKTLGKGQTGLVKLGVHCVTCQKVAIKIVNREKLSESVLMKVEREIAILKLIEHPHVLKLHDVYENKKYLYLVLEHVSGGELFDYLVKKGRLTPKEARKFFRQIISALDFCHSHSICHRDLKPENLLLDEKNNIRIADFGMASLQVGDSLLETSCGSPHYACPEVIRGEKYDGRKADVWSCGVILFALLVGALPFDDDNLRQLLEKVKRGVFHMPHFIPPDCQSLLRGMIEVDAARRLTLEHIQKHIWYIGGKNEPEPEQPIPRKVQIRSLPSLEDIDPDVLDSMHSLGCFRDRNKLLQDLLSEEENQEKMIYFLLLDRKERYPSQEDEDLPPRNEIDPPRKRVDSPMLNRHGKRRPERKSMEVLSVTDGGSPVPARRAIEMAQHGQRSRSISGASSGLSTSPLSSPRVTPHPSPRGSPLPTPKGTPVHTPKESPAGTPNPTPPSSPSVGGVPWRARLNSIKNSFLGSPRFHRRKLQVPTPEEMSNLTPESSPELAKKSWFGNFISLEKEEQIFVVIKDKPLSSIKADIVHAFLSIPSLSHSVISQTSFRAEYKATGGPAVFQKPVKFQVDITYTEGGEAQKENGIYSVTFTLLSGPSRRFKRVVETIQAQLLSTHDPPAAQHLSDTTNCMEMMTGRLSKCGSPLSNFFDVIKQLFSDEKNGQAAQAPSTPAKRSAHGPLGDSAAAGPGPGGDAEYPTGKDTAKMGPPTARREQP
# Method: as §1
# [15] = biological target: Ret (V804L)(h) (Homo sapiens (Human), UniProt P07949, V804L)
# Method: as §1
# [16] = biological target: Lyn(m) (Mus musculus (Mouse), UniProt P25911)
# Method: as §1
# [17] = biological target: Rsk4(h) (Homo sapiens (Human), UniProt Q9UK32)
# Method: as §1
# [18] = biological target: Mer(h) (Homo sapiens (Human), UniProt Q12866)
# Method: as §1
# [19] = biological target: SBK1(h) (Homo sapiens (Human), UniProt Q52WX2)
# Method: as §1
# [20] = biological target: SGK(h) (Homo sapiens (Human), UniProt O00141)
# Sequence of SGK(h) (O00141 whole entry): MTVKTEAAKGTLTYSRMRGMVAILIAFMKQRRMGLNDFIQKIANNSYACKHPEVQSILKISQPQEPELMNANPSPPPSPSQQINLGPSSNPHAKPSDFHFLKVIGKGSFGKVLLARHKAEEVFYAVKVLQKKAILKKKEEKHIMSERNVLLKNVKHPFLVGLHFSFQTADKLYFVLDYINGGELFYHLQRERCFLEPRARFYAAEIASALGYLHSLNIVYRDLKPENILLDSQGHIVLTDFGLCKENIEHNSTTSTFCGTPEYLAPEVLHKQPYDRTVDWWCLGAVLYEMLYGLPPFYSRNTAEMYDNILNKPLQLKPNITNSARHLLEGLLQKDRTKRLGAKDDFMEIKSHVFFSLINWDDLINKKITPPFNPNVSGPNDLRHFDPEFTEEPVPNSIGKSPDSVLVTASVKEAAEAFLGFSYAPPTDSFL
# Method: as §1
# [21] = biological target: SIK(h) (Homo sapiens (Human), UniProt P57059)
# Method: as §1
# [22] = biological target: SNRK(h) (Homo sapiens (Human), UniProt Q9NRH2)
# Sequence of SNRK(h) (Q9NRH2 whole entry): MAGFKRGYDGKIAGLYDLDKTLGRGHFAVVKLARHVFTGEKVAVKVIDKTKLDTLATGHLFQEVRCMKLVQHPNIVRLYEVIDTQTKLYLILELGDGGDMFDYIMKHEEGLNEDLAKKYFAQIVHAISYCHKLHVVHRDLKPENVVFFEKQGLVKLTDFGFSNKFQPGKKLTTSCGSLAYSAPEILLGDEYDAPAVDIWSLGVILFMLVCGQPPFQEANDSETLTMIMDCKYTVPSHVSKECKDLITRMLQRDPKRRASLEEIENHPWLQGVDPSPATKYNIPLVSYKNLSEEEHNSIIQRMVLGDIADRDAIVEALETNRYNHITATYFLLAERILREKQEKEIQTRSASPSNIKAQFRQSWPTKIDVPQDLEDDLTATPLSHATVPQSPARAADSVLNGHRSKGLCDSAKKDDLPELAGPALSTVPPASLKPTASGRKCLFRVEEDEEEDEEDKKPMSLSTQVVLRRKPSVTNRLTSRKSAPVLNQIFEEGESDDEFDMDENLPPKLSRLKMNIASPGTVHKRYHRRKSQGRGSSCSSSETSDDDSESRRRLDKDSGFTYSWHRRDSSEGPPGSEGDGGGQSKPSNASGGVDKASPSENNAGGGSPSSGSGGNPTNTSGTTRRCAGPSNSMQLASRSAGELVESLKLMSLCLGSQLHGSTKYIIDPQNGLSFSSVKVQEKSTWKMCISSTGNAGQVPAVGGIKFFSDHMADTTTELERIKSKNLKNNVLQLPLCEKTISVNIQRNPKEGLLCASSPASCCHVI
# Method: as §1
# [23] = biological target: cKit(D816H)(h) (Homo sapiens (Human), UniProt P10721, D816H)
# Sequence of cKit(D816H)(h) (P10721 26-976 D816H): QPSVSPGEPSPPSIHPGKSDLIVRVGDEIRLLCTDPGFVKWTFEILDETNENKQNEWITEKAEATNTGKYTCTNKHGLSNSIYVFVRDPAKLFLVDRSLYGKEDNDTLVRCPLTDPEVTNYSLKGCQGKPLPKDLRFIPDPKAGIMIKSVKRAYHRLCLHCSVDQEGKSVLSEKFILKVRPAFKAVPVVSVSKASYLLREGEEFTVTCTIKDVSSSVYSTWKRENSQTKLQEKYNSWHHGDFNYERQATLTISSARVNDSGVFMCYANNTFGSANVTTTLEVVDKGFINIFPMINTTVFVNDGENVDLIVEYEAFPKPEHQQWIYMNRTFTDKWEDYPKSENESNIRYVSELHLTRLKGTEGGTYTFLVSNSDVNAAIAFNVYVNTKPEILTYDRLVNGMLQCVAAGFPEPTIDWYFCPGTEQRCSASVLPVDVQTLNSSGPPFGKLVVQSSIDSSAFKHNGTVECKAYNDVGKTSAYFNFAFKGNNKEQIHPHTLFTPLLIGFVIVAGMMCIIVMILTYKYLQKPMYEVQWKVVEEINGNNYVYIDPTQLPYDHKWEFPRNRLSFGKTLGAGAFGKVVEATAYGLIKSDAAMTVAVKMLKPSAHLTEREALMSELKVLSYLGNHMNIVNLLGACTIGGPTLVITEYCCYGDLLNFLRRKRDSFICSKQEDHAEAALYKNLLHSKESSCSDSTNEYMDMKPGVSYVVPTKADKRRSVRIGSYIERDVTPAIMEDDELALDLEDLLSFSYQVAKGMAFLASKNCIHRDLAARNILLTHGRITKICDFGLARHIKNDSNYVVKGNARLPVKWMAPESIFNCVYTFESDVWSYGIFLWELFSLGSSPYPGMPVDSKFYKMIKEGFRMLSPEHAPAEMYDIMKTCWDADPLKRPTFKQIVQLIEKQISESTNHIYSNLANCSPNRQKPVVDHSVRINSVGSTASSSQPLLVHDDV
# Method: as §1
# [24] = biological target: SRMS(h) (Homo sapiens (Human), UniProt Q9H3Y6)
# Method: as §1
# [25] = biological target: SRPK1(h) (Homo sapiens (Human), UniProt Q96SB4)
# Method: as §1
# [26] = biological target: cKit(V654A)(h) (Homo sapiens (Human), UniProt P10721, V654A)
# Sequence of cKit(V654A)(h) (P10721 26-976 V654A): as the sequence (P10721 26-976 D816H) above, with V629A, H791D counted along it
# Method: as §1
# [27] = biological target: MRCKγ(h) (Homo sapiens (Human), UniProt Q6DT37)
# Method: as §1
# [28] = biological target: CRIK(h) (Homo sapiens (Human), UniProt O14578)
# Method: as §1
# [29] = biological target: DRAK2(h) (Homo sapiens (Human), UniProt O94768)
# Method: as §1
# [30] = biological target: NEK7(h) (Homo sapiens (Human), UniProt Q8TDX7)
# Method: as §1
# [31] = biological target: PAK5(h) (Homo sapiens (Human), UniProt Q9P286)
# Method: as §1
# [32] = biological target: WNK1(h) (Homo sapiens (Human), UniProt Q9H4A3)
# Method: as §1
# [33] = biological target: WNK2(h) (Homo sapiens (Human), UniProt Q9Y3S1)
# Method: as §1
# [34] = biological target: FGFR4(h) (Homo sapiens (Human), UniProt P22455)
# Method: as §1
compound,measurement,setting,value
"C[C@H](NC(=O)c1c[nH]c2ccc(-c3ccc4nc(NC(=O)C5CC5)sc4c3)cc12)c1cccc(F)c1 [Compound 34, (S)-5-(2-(cyclopropanecarboxamido)benzo[d]thiazol-6-yl)-N-(1-(3-fluorophenyl)ethyl)-1H-indole-3-carboxamide]",Inhibition ratio,[1],99%
same,Inhibition ratio,[2],30%
same,Inhibition ratio,[3],21%
same,Inhibition ratio,[4],23%
same,Inhibition ratio,[5],4%
same,Inhibition ratio,[6],−5%
same,Inhibition ratio,[7],39%
same,Inhibition ratio,[8],26%
same,Inhibition ratio,[9],75%
same,Inhibition ratio,[10],7%
same,Inhibition ratio,[11],7%
same,Inhibition ratio,[12],20%
same,Inhibition ratio,[13],36%
same,Inhibition ratio,[14],8%
same,Inhibition ratio,[15],99%
same,Inhibition ratio,[16],72%
same,Inhibition ratio,[17],−15%
same,Inhibition ratio,[18],97%
same,Inhibition ratio,[19],−12%
same,Inhibition ratio,[20],2%
same,Inhibition ratio,[21],21%
same,Inhibition ratio,[22],−24%
same,Inhibition ratio,[23],44%
same,Inhibition ratio,[24],12%
same,Inhibition ratio,[25],29%
same,Inhibition ratio,[26],−1%
same,Inhibition ratio,[27],−1%
same,Inhibition ratio,[28],5%
same,Inhibition ratio,[29],18%
same,Inhibition ratio,[30],4%
same,Inhibition ratio,[31],−2%
same,Inhibition ratio,[32],10%
same,Inhibition ratio,[33],38%
same,Inhibition ratio,[34],5%
"C[C@H](NC(=O)c1cn(C)c2ccc(-c3ccn4nc(NC(=O)C5CC5)nc4c3)cc12)c1cccc(F)c1 [Compound 94, (S)-5-(2-(cyclopropanecarboxamido)-[1,2,4]triazolo[1,5-a]pyridin-7-yl)-N-(1-(3-fluorophenyl)ethyl)-1-methyl-1H-indole-3-carboxamide]",Inhibition ratio/%,[1],61%
same,Inhibition ratio/%,[2],10%
same,Inhibition ratio/%,[3],22%
same,Inhibition ratio/%,[4],3%
same,Inhibition ratio/%,[5],57%
same,Inhibition ratio/%,[6],−14%
same,Inhibition ratio/%,[7],48%
same,Inhibition ratio/%,[8],15%
same,Inhibition ratio/%,[9],−3%
same,Inhibition ratio/%,[10],47%
same,Inhibition ratio/%,[11],48%
same,Inhibition ratio/%,[12],−5%
same,Inhibition ratio/%,[13],27%
same,Inhibition ratio/%,[14],−2%
same,Inhibition ratio/%,[15],50%
same,Inhibition ratio/%,[16],19%
same,Inhibition ratio/%,[17],3%
same,Inhibition ratio/%,[18],−6%
same,Inhibition ratio/%,[19],−19%
same,Inhibition ratio/%,[20],51%
same,Inhibition ratio/%,[21],54%
same,Inhibition ratio/%,[22],25%
same,Inhibition ratio/%,[23],42%
same,Inhibition ratio/%,[24],43%
same,Inhibition ratio/%,[25],50%
same,Inhibition ratio/%,[26],68%
same,Inhibition ratio/%,[27],55%
same,Inhibition ratio/%,[28],−7%
same,Inhibition ratio/%,[29],37%
same,Inhibition ratio/%,[30],43%
same,Inhibition ratio/%,[31],47%
same,Inhibition ratio/%,[32],45%
same,Inhibition ratio/%,[33],6%
same,Inhibition ratio/%,[34],37%
